Reference: ChEMBL document CHEMBL1153708, “Synthesis and evaluation of a thio analogue of duocarmycin SA” (Bioorg Med Chem Lett, 2009)
Blank lines part the entries; values can stand above or below the molecule they belong to. Calls of active or inactive are those of the source. The rule behind the calls is not given here.

Assays:
L1210 = experiment: Cytotoxicity against mouse L1210 cells; type: functional, cell-based
Nucleic Acid = experiment: Induction of w794 DNA alkylation at 10 uM after 24 hrs by PAGE; type: nucleic-acid assay

SMILES: COC(=O)c1cc2c(s1)C(=O)C=C1N(C(=O)OC(C)(C)C)C[C@@H]3C[C@@]123
IC50 (L1210): 55 nM

SMILES: COC(=O)c1cc2c(s1)C(=O)C=C1N(C(=O)c3cc4cc(OC)c(OC)c(OC)c4[nH]3)C[C@H]3C[C@]123
IC50 (L1210): 0.007 nM

Activity (Nucleic Acid): Active
SMILES: COC(=O)c1cc2c(s1)C(=O)C=C1N(C(=O)c3cc4cc(OC)c(OC)c(OC)c4[nH]3)C[C@@H]3C[C@@]123
IC50 (L1210): 0.06 nM

SMILES: COC(=O)c1cc2c(s1)C(=O)C=C1N(C(=O)OC(C)(C)C)C[C@H]3C[C@]123
IC50 (L1210): 6 nM

SMILES: COC(=O)c1cc2c([nH]1)C(=O)C=C1N(C(=O)OC(C)(C)C)C[C@@H]3C[C@@]123
IC50 (L1210): 60 nM

SMILES: COC(=O)c1cc2c([nH]1)C(=O)C=C1N(C(=O)c3cc4cc(OC)c(OC)c(OC)c4[nH]3)C[C@H]3C[C@]123
Activity (Nucleic Acid): Active

SMILES: COC(=O)c1cc2c([nH]1)C(=O)C=C1N(C(=O)c3cc4cc(OC)c(OC)c(OC)c4[nH]3)C[C@@H]3C[C@@]123
Activity (Nucleic Acid): Active
